Source: patent US8785488B2 (Exelixis Patent Company LLC, priority 2009, dated 2014)

Experiments:
human TGR5 (h-TGR5) = target: T1, human TGR5 (h-TGR5) (Homo sapiens, UniProt Q8TDU6); assay: TGR5/CRE-Luciferiase Assay (HEK 293 hTGR5/CRE-Luc cells); type: cell-based; settings: h-TGR5 CRE-Luc EC50, Table 1; read-out: CRE-Luc (EC50)
T1 construct: expressed in transfected cells
T1 sequence (Q8TDU6 1-330): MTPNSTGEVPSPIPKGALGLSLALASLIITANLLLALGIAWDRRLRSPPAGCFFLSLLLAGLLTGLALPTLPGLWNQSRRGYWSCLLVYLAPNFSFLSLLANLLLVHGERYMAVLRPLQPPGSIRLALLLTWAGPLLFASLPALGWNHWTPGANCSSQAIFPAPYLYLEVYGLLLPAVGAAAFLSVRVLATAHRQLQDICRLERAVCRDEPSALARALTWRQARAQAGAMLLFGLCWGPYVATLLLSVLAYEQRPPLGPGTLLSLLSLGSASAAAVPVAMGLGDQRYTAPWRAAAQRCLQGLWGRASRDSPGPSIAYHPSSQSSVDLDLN
Summary of the method: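 HEK293 cells stably carrying hTGR5 and a CRE-luciferase reporter were exposed to serially diluted compounds (diluted in DMEM with 5% DMSO) for 6 h. Cells were then lysed in luciferase buffer, luminescence was read, and EC50 values were derived from dose-response curves.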

h-TGR5 = target: T2, h-TGR5 (Homo sapiens, UniProt Q8TDU6); assay: TGR5 cAMP Assay using Cisbio cAMP Dynamic2 htrf kit (hTGR5CRE-luc HEK 293 cells); type: cell-based; settings: h-TGR5 cAMP EC50, Table 1; read-out: cAMP (EC50)
T2 construct: expressed in transfected cells
T2 sequence (Q8TDU6 1-330): T1 sequence (Q8TDU6 1-330)
Summary of the method: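 […], 4000 hTGR5CRE-luc HEK 293 cells per well, with 0.5 mM IBMX and d2-cAMP, were incubated 30 min at room temperature with compounds in 8-point half-log series, in quadruplicate.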

SMILES	EC50 (human TGR5 (h-TGR5))	EC50 (h-TGR5)
Cc1cc(-n2c(C(C)(C)c3ccc(Cl)c(Cl)c3)cnc2SCc2ccc(S(=O)(=O)NC(=O)NN3CCCC3)cc2Cl)ccc1F [3-chloro-4-[({5-[l-(3,4-dichlorophenyl)-1-methylethyl]-1-(4-fluoro-3-methylphenyl)-1H-imidazol-2-yl}thio)methyl]-N-[(pyrrolidin-1-ylamino)carbonyl]benzenesulfonamide]	100 to 1000 nM	100 to 1000 nM
COc1cc(C(C)(C)c2c(Cl)nc(SCC3CCN(S(C)(=O)=O)CC3)n2-c2ccc(F)cc2)ccc1Cl [4-({[4-chloro-5-{1-[4-chloro-3-(methyloxy)phenyl]-1-methylethyl}-1-(4-fluorophenyl)-1H-imidazol-2-yl]thio}methyl)-1-(methylsulfonyl)piperidine]	100 to 1000 nM	100 to 1000 nM
COc1cc(C(C)(C)c2cnc(SCc3ccc(S(=O)(=O)NC(=O)NN4CCCC4)cc3Cl)n2-c2ccc(F)cc2)ccc1F [3-chloro-4-({[5-{1-[4-fluoro-3-(methyloxy)phenyl]-1-methylethyl}-1-(4-fluorophenyl)-1H-imidazol-2-yl]thio}methyl)-N-[(pyrrolidin-1-ylamino)carbonyl]benzenesulfonamide]	100 to 1000 nM	100 to 1000 nM
COc1cc(C(C)(C)c2cnc(SCc3ccc(S(=O)(=O)NC(=O)Nc4nccs4)cc3Cl)n2-c2ccc(F)cc2)ccc1Cl [3-chloro-4-({[5-{1-[4-chloro-3-(methyloxy)phenyl]-1-methylethyl}-1-(4-fluorophenyl)-1H-imidazol-2-yl]thio}methyl)-N-[(1,3-thiazol-2-ylamino)carbonyl]benzenesulfonamide]	100 to 1000 nM	100 to 1000 nM
COC[C@H]1CCCN1NC(=O)NS(=O)(=O)c1ccc(CSc2ncc(C(C)(C)c3ccc(Cl)c(OC)c3)n2-c2ccc(F)cc2)c(Cl)c1 [3-chloro-4-({[5-{1-[4-chloro-3-(methyloxy)phenyl]-1-methylethyl}-1-(4-fluorophenyl)-1H-imidazol-2-yl]thio}methyl)-N-[({(2R)-2-[(methyloxy)methyl]pyrrolidin-1-yl}amino)carbonyl]benzenesulfonamide]	100 to 1000 nM	100 to 1000 nM
CC(C)(c1ccc(Cl)c(Cl)c1)c1cnc(SCc2ccc(C(=O)O)c(Cl)c2)n1-c1ccc(F)cc1 [2-chloro-4-[({5-[1-(3,4-dichlorophenyl)-1-methylethyl]-1-(4-fluorophenyl)-1H-imidazol-2-yl}thio)methyl]benzoic acid]	100 to 1000 nM	100 to 1000 nM
CC(C)(c1cccc(S(C)(=O)=O)c1)c1cnc(SCc2c(F)cccc2Cl)n1-c1ccc(F)cc1 [2-{[(2-chloro-6-fluorophenyl)methyl]thio}-1-(4-fluorophenyl)-5-{1-methyl-1-[3-(methylsulfonyl)phenyl]ethyl}-1H-imidazole]	100 to 1000 nM	< 100 nM
CC(C)(c1ccc(S(N)(=O)=O)c(Cl)c1)c1cnc(SCc2c(F)cc(C(=O)O)cc2F)n1-c1ccc(F)cc1 [4-({[5-{1-[4-(aminosulfonyl)-3-chlorophenyl]-1-methylethyl}-1-(4-fluorophenyl)-1H-imidazol-2-yl]thio}methyl)-3,5-difluorobenzoic acid]	< 100 nM	< 100 nM
CC(C)NC(=O)NS(=O)(=O)c1ccc(CSc2ncc(C(C)(C)c3ccc(F)c(C(F)F)c3)n2-c2ccc(F)cc2)c(Cl)c1 [3-chloro-4-({[5-{1-[3-(difluoromethyl)-4-fluorophenyl]-1-methylethyl}-1-(4-fluorophenyl)-1H-imidazol-2-yl]thio}methyl)-N-{[(1-methylethyl)amino]carbonyl} benzenesulfonamide]	100 to 1000 nM	100 to 1000 nM
COc1cc(C(C)(C)c2c(C)nc(SCc3c(F)cccc3Cl)n2-c2ccc(F)cc2)ccc1Cl [2-{[(2-chloro-6-fluorophenyl)methyl]thio}-5-{1-[4-chloro-3-(methyloxy)phenyl]-1-methylethyl}-1-(4-fluorophenyl)-4-methyl-1H-imidazole]	100 to 1000 nM	100 to 1000 nM
COc1cc(-n2c(C(C)(C)c3ccc(S(N)(=O)=O)c(Cl)c3)cnc2SCc2ccc(S(N)(=O)=O)cc2Cl)ccc1F [4-(1-{2-({[4-(aminosulfonyl)-2-chlorophenyl]methyl}thio)-1-[4-fluoro-3-(methyloxy)phenyl]-1H-imidazol-5-yl}-1-methylethyl)-2-chlorobenzenesulfonamide]	< 100 nM	< 100 nM
COc1cc(C(C)(C)c2cnc(SCc3ccnc(N)c3)n2-c2ccc(F)cc2)ccc1Cl [4-({[5-{1-[4-chloro-3-(methyloxy)phenyl]-1-methylethyl}-1-(4-fluorophenyl)-1H-imidazol-2-yl]thio}methyl)pyridin-2-amine]	100 to 1000 nM	100 to 1000 nM

Second part, the molecule after the results:

EC50 (human TGR5 (h-TGR5))	EC50 (h-TGR5)	SMILES
< 100 nM	< 100 nM	COc1cc(C(C)(C)c2cnc(SCc3c(F)cc(C(=O)NCS(=O)(=O)O)cc3F)n2-c2ccc(F)cc2)ccc1Cl [({[4-({[5-{1-[4-chloro-3-(methyloxy)phenyl]-1-methylethyl}-1-(4-fluorophenyl)-1H-imidazol-2-yl]thio}methyl)-3,5-difluorophenyl]carbonyl}amino)methanesulfonic acid]
< 100 nM	< 100 nM	COc1ccc(C(C)(C)c2cnc(SCc3c(F)cccc3C(F)(F)F)n2-c2ccc(F)cc2)cc1OC [5-{1-[3,4-bis(methyloxy)phenyl]-1-methylethyl}-1-(4-fluorophenyl)-2-({[2-fluoro-6-(trifluoromethyl)phenyl]methyl}thio)-1H-imidazole]
< 100 nM	< 100 nM	COCCOCCOCCOCCOCCOCCOCCOCCOCCOCCOCCOCCOCCOCCNS(=O)(=O)c1cc(F)c(CSc2ncc(C(C)(C)c3ccc(Cl)c(OC)c3)n2-c2ccc(F)cc2)c(Cl)c1 [3-chloro-4-({[5-{1-[4-chloro-3-(methyloxy)phenyl]-1-methylethyl}-1-(4-fluorophenyl)-1H-imidazol-2-yl]thio}methyl)-5-fluoro-N-3,6,9,12,15,18,21,24,27,30,33,36, 39,42-tetradecaoxatritetracont-1-ylbenzenesulfonamide]
< 100 nM	< 100 nM	COc1cc(C(C)(C)c2cnc(SCc3c(F)cc(OCCCNC(=N)N)cc3F)n2-c2ccc(F)cc2)ccc1Cl [1-(3-{[4-({[5-{1-[4-chloro-3-(methyloxy)phenyl]-1-methylethyl}-1-(4-fluorophenyl)-1H-imidazol-2-yl]thio}methyl)-3,5-difluorophenyl]oxy}propyl)guanidine]
< 100 nM	< 100 nM	COc1cc(C(C)(C)c2cnc(SCc3c(F)cc(OCc4nnn[nH]4)cc3F)n2-c2ccc(F)cc2)ccc1Cl [5-({[4-({[5-{1-[4-chloro-3-(methyloxy)phenyl]-1-methylethyl}-1-(4-fluorophenyl)-1H-imidazol-2-yl]thio}methyl)-3,5-difluorophenyl]oxy}methyl)-1H-tetrazole]
< 100 nM	< 100 nM	COc1cc(-n2c(C(C)(C)c3ccc(F)c(Cl)c3)cnc2SCc2c(F)cc(CCCN(C)C)cc2F)ccc1F [3-{4-[({5-[1-(3-chloro-4-fluorophenyl)-1-methylethyl]-1-[4-fluoro-3-(methyloxy)phenyl]-1H-imidazol-2-yl}thio)methyl]-3,5-difluorophenyl}-N,N-dimethylpropan-1-amine]
